{"source": "ChEMBL document CHEMBL1240533", "about": "“Selectivity and potency of cyclin-dependent kinase inhibitors” (AAPS J, 2006)", "key": {"[1]": {"molecular_target": "Cyclin-dependent kinase 4 (Homo sapiens, UniProt P11802)", "sequence (P11802 whole entry)": "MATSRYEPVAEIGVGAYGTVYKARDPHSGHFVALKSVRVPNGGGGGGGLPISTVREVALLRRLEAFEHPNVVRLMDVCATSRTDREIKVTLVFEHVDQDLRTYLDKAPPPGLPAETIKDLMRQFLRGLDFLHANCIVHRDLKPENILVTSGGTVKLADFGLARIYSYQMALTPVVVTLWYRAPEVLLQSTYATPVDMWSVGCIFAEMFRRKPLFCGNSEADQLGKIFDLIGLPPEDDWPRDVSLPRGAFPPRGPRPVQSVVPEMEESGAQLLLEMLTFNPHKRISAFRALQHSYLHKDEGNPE"}, "[2]": {"molecular_target": "Cyclin-dependent kinase 2/cyclin A (Homo sapiens, UniProt P24941)", "format": "protein-complex assay", "description": "Inhibition of CDK2/cyclin A"}, "[3]": {"molecular_target": "Cyclin-dependent kinase 5 (Homo sapiens, UniProt Q00535)", "sequence (Q00535 whole entry)": "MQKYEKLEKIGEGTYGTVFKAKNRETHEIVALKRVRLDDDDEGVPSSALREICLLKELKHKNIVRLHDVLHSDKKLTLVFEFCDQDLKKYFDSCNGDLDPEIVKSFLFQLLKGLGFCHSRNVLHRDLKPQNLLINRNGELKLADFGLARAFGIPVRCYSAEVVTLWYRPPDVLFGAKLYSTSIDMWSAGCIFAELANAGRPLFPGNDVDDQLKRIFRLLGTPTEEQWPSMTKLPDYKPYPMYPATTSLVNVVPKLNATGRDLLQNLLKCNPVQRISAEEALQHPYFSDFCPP"}, "[4]": {"molecular_target": "Cyclin-dependent kinase 6 (Homo sapiens, UniProt Q00534)", "sequence (Q00534 whole entry)": "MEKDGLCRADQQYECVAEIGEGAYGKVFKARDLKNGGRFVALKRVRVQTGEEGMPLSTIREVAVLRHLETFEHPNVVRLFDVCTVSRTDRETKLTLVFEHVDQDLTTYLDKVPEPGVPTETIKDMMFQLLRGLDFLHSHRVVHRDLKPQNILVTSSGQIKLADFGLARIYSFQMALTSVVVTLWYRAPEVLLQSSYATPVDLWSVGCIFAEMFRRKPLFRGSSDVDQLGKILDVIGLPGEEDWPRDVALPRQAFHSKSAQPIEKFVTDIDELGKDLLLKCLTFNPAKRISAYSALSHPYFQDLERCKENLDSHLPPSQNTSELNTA"}}, "data": [{"smiles": "O=C(Cc1ccc2ccccc2c1)Nc1cc(C2CC2)n[nH]1", "values": [{"measurement": "IC50", "setting": "[1]", "value": "> 10000", "unit": "nM"}]}, {"smiles": "O=C1C(c2c(O)[nH]c3ccc(S(=O)(=O)O)cc23)=Nc2ccccc21", "values": [{"measurement": "IC50", "setting": "[1]", "value": 200, "unit": "nM"}]}, {"smiles": "CC(=O)N[C@@H](CCCN=C(N)N)C(=O)N[C@@H](CCCN=C(N)N)C(=O)N[C@@H](CC(C)C)C(=O)N[C@@H](CC(N)=O)C(=O)N[C@@H](Cc1ccccc1)C(N)=O", "values": [{"measurement": "IC50", "setting": "[2]", "value": "> 50000", "unit": "nM"}]}, {"smiles": "Cc1ccc(F)c(Nc2nccc(-c3ccc(S(N)(=O)=O)cc3)n2)c1", "values": [{"measurement": "IC50", "setting": "[1]", "value": 150, "unit": "nM"}]}, {"smiles": "CCCCOc1c(C(=O)c2c(F)cc(C)cc2F)ccc2[nH]ncc12", "values": [{"measurement": "IC50", "setting": "[1]", "value": 2700, "unit": "nM"}]}, {"smiles": "Nc1nc2ccc(C(=O)c3c(F)cccc3Cl)cc2n1Cc1c(F)cccc1F", "values": [{"measurement": "IC50", "setting": "[1]", "value": 810, "unit": "nM"}]}, {"smiles": "O=C(Nc1cc(C2CCC2)c[nH]1)Nc1cccc2ccncc12", "values": [{"measurement": "IC50", "setting": "[3]", "value": 5, "unit": "nM"}]}, {"smiles": "CN(C)CCNS(=O)(=O)c1ccc(Nc2cccc(-c3cnc4ccccn34)c2)cc1", "values": [{"measurement": "IC50", "setting": "[1]", "value": 260, "unit": "nM"}]}, {"smiles": "CC1(C)CC2(C)Nc3cc(-c4ccc5c(c4)NC4(C)CC(C)(C)NC(=S)N54)ccc3N2C(=S)N1", "note": "(stereo unspecified)", "values": [{"measurement": "IC50", "setting": "[3]", "value": 25000, "unit": "nM"}]}, {"smiles": "CCNc1cc(N[C@H]2CC[C@@H](O)CC2)nc(Nc2ccc3c(ccn3Cc3ccccc3)c2)n1", "values": [{"measurement": "IC50", "setting": "[3]", "value": 25000, "unit": "nM"}, {"measurement": "IC50", "setting": "[4]", "value": 5600, "unit": "nM"}]}, {"smiles": "CC(C)(C)Nc1nc(C(F)(F)F)nc2ccc(Nc3ccccc3)cc12", "values": [{"measurement": "IC50", "setting": "[1]", "value": "> 2100", "unit": "nM"}]}, {"smiles": "O=C(Nc1ccccn1)Nc1cccc2c1[C@H]1CCCN1C2=O", "values": [{"measurement": "IC50", "setting": "[1]", "value": 2, "unit": "nM"}]}, {"smiles": "Nc1nc(N)c(N=O)c(=O)[nH]1", "values": [{"measurement": "IC50", "setting": "[1]", "value": 230, "unit": "nM"}]}, {"smiles": "COc1ccc(-c2[nH]nc3c2C(=O)c2c(NC(=O)NNC(=O)c4ccc(O)cc4)cccc2-3)cc1", "values": [{"measurement": "IC50", "setting": "[3]", "value": 5, "unit": "nM"}]}, {"smiles": "O=C1Cc2c([nH]c3ccc([N+](=O)[O-])cc23)-c2ccccc2N1", "note": "[ALSTERPAULLONE]", "values": [{"measurement": "IC50", "setting": "[1]", "value": "> 10000", "unit": "nM"}]}]}
